The source of these data is patent publication US10463670B2, “Use of non-peptide NK1 antagonists in a predetermined dose for the treatment of cancer” (SERVICIO ANDALUZ DE SALUD, priority 2013, dated 2019).

Assay [1] relates to human lung cancer; reference HCC-44. The assay can be described thus: Lung cancer HCC-44 tumours in nude mice, Cisplatin alone or with Aprepitant. To be noted: Cisplatin 8 mg/kg on days 1 and 7, alone. In kind it is in vivo. On the procedure: Immunocompromised female mice, 5-6 weeks of age were used, nu/nu Balb/c nude mice, provided by Harlan Iberica Barcelona (Spain). They were kept at 24° C. and in sterile conditions with food and water “ad libitum”. […] The tumour size was measured and the mice were evaluated for their state of health and weight daily. […] One of the groups was treated with 200 μl of placebo (control group) and the eight remaining groups with doses of 10 (group 1), 20 (group 2), 30 (group 3), 40 (group 4), 50 (group 5), 60 (group 6), 70 (group 7) and 80 (group 8) mg per kilogram of weight and day of the NK1 receptor antagonist Aprepitant. 3 animals were treated per group, during 28 days. All the mice were sacrificed at the end of the experiment. […] Immunocompromised female mice, 5-6 weeks of age were used, in the same conditions as explained in example 1. […] The tumour size was measured and the mice were evaluated for their state of health and weight daily. […] One of the groups was treated with Cisplatin at 8 mg per kilogram of weight at single doses on days 1 and 7 of the experiment (control group) and the eight remaining groups with the same treatment as the control group and the doses of 1 (group 1), 3 (group 2), 5 (group 3), 6 (group 4), 7 (group 5), 8 (group 6), 9 (group 7) and 10 (group 8) mg per kilogram of weight and day, of the NK1 receptor antagonist Aprepitant. […]

The test system of assay [2] is human glioma; reference GAMG. The assay can be described thus: Glioma GAMG tumours in nude mice, Cisplatin alone or with Aprepitant. In kind it is in vivo. To be noted: Cisplatin 8 mg/kg on days 1 and 7, alone. On the procedure: (§1) Immunocompromised female mice, 5-6 weeks of age were used, nu/nu Balb/c nude mice, provided by Harlan Iberica Barcelona (Spain). They were kept at 24° C. and in sterile conditions with food and water “ad libitum”. […] The tumour size was measured and the mice were evaluated for their state of health and weight daily. […] One of the groups was treated with 200 μl of placebo (control group) and the eight remaining groups with doses of 10 (group 1), 20 (group 2), 30 (group 3), 40 (group 4), 50 (group 5), 60 (group 6), 70 (group 7) and 80 (group 8) mg per kilogram of weight and day of the NK1 receptor antagonist Aprepitant. 3 animals were treated per group, during 28 days. All the mice were sacrificed at the end of the experiment. […] Immunocompromised female mice, 5-6 weeks of age were used, in the same conditions as explained in example 1. […] The tumour size was measured and the mice were evaluated for their state of health and weight daily. […] One of the groups was treated with two single doses of Cisplatin, of 8 mg per kilogram of weight, on days 1 and 7 of the experiment (control group). The eight remaining groups were treated with the same treatment as the control group and the doses of 1 (group 1), 3 (group 2), 5 (group 3), 6 (group 4), 7 (group 5), 8 (group 6), 9 (group 7) and 10 (group 8) mg per kilogram of weight and day, of the NK1 receptor antagonist Aprepitant. […]

Assay [3] deals with human fibrosarcoma; reference HT-1080. The assay can be described thus: Fibrosarcoma HT-1080 tumours in nude mice, Cisplatin alone or with Aprepitant. In kind it is in vivo. To be noted: Cisplatin 8 mg/kg on days 1 and 7, alone. On the procedure:
as §1

Assay [4] relates to human melanoma; reference MEL-HO. The assay can be described thus: Melanoma MEL-HO tumours in nude mice, Cisplatin alone or with Aprepitant. In kind it is in vivo. To be noted: Cisplatin 8 mg/kg on days 1 and 7, alone. As to the method:
as §1

Assay [5] deals with human neuroblastoma; reference KELLY. The assay can be described thus: Neuroblastoma KELLY tumours in nude mice, Cisplatin alone or with Aprepitant. In kind it is in vivo. To be noted: Cisplatin 8 mg/kg on days 1 and 7, alone. As to the method: as §1
Assay [6] deals with human lymphoma; reference BC-1. The assay is described as follows: Lymphoma BC-1 tumours in nude mice, Cisplatin alone or with Aprepitant. In kind it is in vivo. The settings on record: Cisplatin 8 mg/kg on days 1 and 7, alone. On the procedure:
as §1

The next assay relates to cell proliferation. The settings on record: Singh et al. 2000; Bigioni et al. 2005; cited from earlier work.

Where a SMILES comes first, the peptide text is derived from it. Bridges are numbered along the chain shown (N, C = ends). [ ]: non-standard residue; d: D form. The star is where a group is joined. NH(β-GlcNAc) = CC(=O)N[C@@H]1[C@@H](O)[C@H](O)[C@@H](CO)O[C@H]1N*; Dap = NC[C@H](N)C(=O)O

Regarding `N.N.[Cl][Pt][Cl]` [Cisplatin], the “Tumour size (mean volume of the tumour)” value in assay [1] (7 days) is given as 105 ± 4 cubic millimeters; in assay [1] (14 days) it was 70 ± 7 cubic millimeters; in assay [2] (7 days), 115 ± 7 cubic millimeters; in assay [2] (14 days), 85 ± 6 cubic millimeters; in assay [3] (7 days), 95 ± 5 cubic millimeters; in assay [3] (14 days) it was 65 ± 5 cubic millimeters. The “Tumour size (mean volume of the tumour)” value in assay [4] (7 days) amounted to 105 ± 6 cubic millimeters; in assay [4] (14 days), 75 ± 6 cubic millimeters; in assay [5] (7 days), 95 ± 8 cubic millimeters; in assay [5] (14 days) it was 60 ± 8 cubic millimeters; in assay [6] (7 days), 85 ± 6 cubic millimeters; in assay [6] (14 days), 50 ± 3 cubic millimeters.
For the compound `CC(=O)N[C@@H]1[C@@H](O)[C@H](O)[C@@H](CO)O[C@H]1NC(=O)C[C@@H]1NC(=O)[C@H](CC(C)C)NC(=O)[C@@H]2CNC(=O)C[C@H](NC1=O)C(=O)N[C@@H](Cc1c[nH]c3ccccc13)C(=O)N[C@@H](Cc1ccccc1)C(=O)N2` [MEN 11420, Nepadutant] (cyclo(D(NH(β-GlcNAc))DWF[Dap]L); lactam 2-5), the Blocking cell proliferation result in the assay with cell proliferation is on record as “efficacy thereof in blocking cell proliferation”.
Regarding `Cc1ccc(CC(=O)N(C)[C@H](Cc2ccc3ccccc3c2)C(=O)N[C@@H]2CCCC[C@@H]2NC(=O)c2c[nH]c3ccccc23)cc1` [MEN 11467], the Blocking cell proliferation result with cell proliferation was “efficacy thereof in blocking cell proliferation”.
Consider `CC(=O)NC1(c2ccccc2)CCN(CC[C@H](CN(C)C(=O)c2ccccc2)c2ccc(Cl)c(Cl)c2)CC1` [SR 48968], for which the Blocking cell proliferation entry in the assay on cell proliferation is “efficacy thereof in blocking cell proliferation”.
